Several values for one entry are separate records, joined by “and”; a condition that tells them apart may be missing. Equal entries are not always repeated. Where two headings read alike, the source gives them in different places.
Assay: Rat PK study #2 (Compound A PO 5 mg/kg, DMSO/PEG-400/water)
Format: in vivo, SD rats
Protocol: For the second rat pharmacokinetic study, the pharmacokinetics of Compound A were assessed in male SD rats. Compound A was prepared in a formulation of 5% DMSO, 40% PEG-400, and 55% Milli-Q water (see formulation in Table 2D) and delivered to animals orally (PO) at a dose of 5 mg/kg. Animals (n=3) were then monitored over a 24-hour period.
Blood samples (~0.2 mL) were collected according to a schedule (0.083, 0.25, 0.5, 1, 2, 4, 8, and 24 h following the initial dosing) by jugular vein by cannulation and EDTA-K2 was used as anticoagulant. Within 30 minutes of collection, the samples were centrifuged at approximately 4000 times g-force for 5 minutes at 4° C. to obtain blood plasma. The plasma samples were immediately divided into two aliquots (~75 μL each), transferred to a cryogenic vial, and stored in a freezer at −75±15° C. prior to analysis.
The concentration of Compound A in plasma samples was determined by liquid chromatography-mass spectrometry (LC-MS/MS) using a Shimadzu HPLC (DGU-405; LC-30AD XS CN; SIL-40AC XSCN; Plate Changer CN; CTO-40C CN; and CBM-40 CN) and an AB API 7500+LC/MS/MS instrument. Samples were analyzed on a Raptor Biphenyl 2.7 μm (50×2.1 mm) column. Solution A in the mobile phase was 95% water (0.1% formic acid) and solution B was 95% acetonitrile in water (0.1% formic acid), injection volume was 15 μL, and flow rate was 0.6 mL/min.
To prepare samples for analysis, serial concentrations were prepared by diluting the stock solution of analyte with a 50% acetonitrile in water solution. 5 μL working solutions (5, 10, 20, 50, 100, 500, 1000, 5000, and 10000 ng/ml) were added to 50 μL of the blank SD rat plasma to achieve calibration standards of ~0.5 to 1000 ng/ml (0.5, 1, 2, 5, 10, 50, 100, 500, and 1000 ng/ml) in a total volume of 55 μL. Five quality control samples at 1 ng/ml, 2 ng/ml, 5 ng/ml 50 ng/ml, and 800 ng/ml for plasma were prepared independently of those used for the calibration curves. These QC samples were prepared on the day of analysis in the same way as calibration standards.
55 μL of standards, 55 μL of QC samples and 55 μL of unknown samples (50 μL of unknown rat plasma with 5 μL of blank solution) were added to 200 μL of acetonitrile containing IS mixture (verapamil) for precipitating protein respectively. The samples were then vortexed for 30 s. After centrifugation at 4° C., 3900 rpm for 15 min, the supernatant was diluted 3 times with water. […] of diluted supernatant was injected into the LC/MS/MS system for quantitative analysis.

[1] = SD rats, PO 5 mg/kg, DMSO/PEG-400/Milli-Q water formulation, individual animals, 5 mg/kg
[2] = SD rats, PO 5 mg/kg, DMSO/PEG-400/Milli-Q water formulation, mean of 3 animals
[3] = male, Sprague-Dawley, rat, plasma, po, 5 mg/kg, SD rats, PO 5 mg/kg, DMSO/PEG-400/Milli-Q water formulation, mean of 3 animals

Compound: Cn1cc(-c2ccccc2)c(-c2cn(C)c(=O)c3[nH]c(-c4cnn(C(F)(F)F)c4)cc23)cc1=O [Compound A, 6-methyl-4-(1-methyl-2-oxo-5-phenyl-1,2-dihydropyridin-4-yl)-2-(1-(trifluoromethyl)-1H-pyrazol-4-yl)-1,6-dihydro-7H-pyrrolo[2,3-c]pyridin-7-one]
- Clinical observations (5 mg/kg PO, 24 h, one animal soft feces at 8 h): no abnormalities recorded
- Plasma Concentration (SD rats, PO 5 mg/kg, DMSO/PEG-400/Milli-Q water formulation, 0.083 h, individual animals, 5 mg/kg): 9.76 ng/mL and 0.719 ng/mL and 2.15 ng/mL
- Plasma Concentration (SD rats, PO 5 mg/kg, DMSO/PEG-400/Milli-Q water formulation, 0.25 h, individual animals, 5 mg/kg): 7.42 ng/mL and 5.44 ng/mL and 12.5 ng/mL
- Plasma Concentration (SD rats, PO 5 mg/kg, DMSO/PEG-400/Milli-Q water formulation, 0.5 h, individual animals, 5 mg/kg): 31.9 ng/mL and 15.4 ng/mL and 32.7 ng/mL
- Plasma Concentration (SD rats, PO 5 mg/kg, DMSO/PEG-400/Milli-Q water formulation, 1 h, individual animals, 5 mg/kg): 62.6 ng/mL and 38.4 ng/mL and 101 ng/mL
- Plasma Concentration (SD rats, PO 5 mg/kg, DMSO/PEG-400/Milli-Q water formulation, 2 h, individual animals, 5 mg/kg): 170 ng/mL and 64.8 ng/mL and 272 ng/mL
- Plasma Concentration (SD rats, PO 5 mg/kg, DMSO/PEG-400/Milli-Q water formulation, 4 h, individual animals, 5 mg/kg): 472 ng/mL and 218 ng/mL and 496 ng/mL
- Plasma Concentration (SD rats, PO 5 mg/kg, DMSO/PEG-400/Milli-Q water formulation, 8 h, individual animals, 5 mg/kg): 532 ng/mL and 181 ng/mL and 302 ng/mL
- Plasma Concentration (SD rats, PO 5 mg/kg, DMSO/PEG-400/Milli-Q water formulation, 24 h, individual animals, 5 mg/kg): 2.11 ng/mL and 5.81 ng/mL and 6.35 ng/mL
- AUClast [1]: 7070 ng·h/mL and 2643 ng·h/mL and 5058 ng·h/mL
- AUClast/D [1]: 1414 mg·h/mL and 529 mg·h/mL and 1012 mg·h/mL
- Cmax [1]: 532 ng/mL and 218 ng/mL and 496 ng/mL
- F [1]: 81.5% and 30.5% and 58.3%
- AUClast/D [2]: 985 mg·h/mL
- F [2]: 56.8%
- concentration at 1 h (male, SD, rat, plasma, po, 5 mg/kg, SD rats, PO 5 mg/kg, DMSO/PEG-400/Milli-Q water formulation, 1 h, mean of 3 animals): 67 ng/mL
- concentration at 2 h (male, SD, rat, plasma, po, 5 mg/kg, SD rats, PO 5 mg/kg, DMSO/PEG-400/Milli-Q water formulation, 2 h, mean of 3 animals): 169 ng/mL
- concentration at 4 h (male, SD, rat, plasma, po, 5 mg/kg, SD rats, PO 5 mg/kg, DMSO/PEG-400/Milli-Q water formulation, 4 h, mean of 3 animals): 395 ng/mL
- concentration at 8 h (male, SD, rat, plasma, po, 5 mg/kg, SD rats, PO 5 mg/kg, DMSO/PEG-400/Milli-Q water formulation, 8 h, mean of 3 animals): 338 ng/mL
- concentration at 0.083 h (male, Sprague-Dawley, rat, plasma, po, 5 mg/kg, SD rats, PO 5 mg/kg, DMSO/PEG-400/Milli-Q water formulation, 0.083 h, mean of 3 animals): 4.21 ng/mL
- concentration at 0.25 h (male, Sprague-Dawley, rat, plasma, po, 5 mg/kg, SD rats, PO 5 mg/kg, DMSO/PEG-400/Milli-Q water formulation, 0.25 h, mean of 3 animals): 8.5 ng/mL
- concentration at 0.5 h (male, Sprague-Dawley, rat, plasma, po, 5 mg/kg, SD rats, PO 5 mg/kg, DMSO/PEG-400/Milli-Q water formulation, 0.5 h, mean of 3 animals): 26.7 ng/mL
- concentration at 24 h (male, Sprague-Dawley, rat, plasma, po, 5 mg/kg, SD rats, PO 5 mg/kg, DMSO/PEG-400/Milli-Q water formulation, 24 h, mean of 3 animals): 4.75 ng/mL
- Tmax (male, Sprague-Dawley, rat, plasma, po, 5 mg/kg, SD rats, PO 5 mg/kg, DMSO/PEG-400/Milli-Q water formulation, individual animals): 8 h
- AUC(0-t) [3]: 4920 ng·h/mL
- Tmax [3]: 5.33 h
- Cmax (male, Sprague-Dawley, rat, plasma, po, 5 mg/kg, SD rats, PO 5 mg/kg, DMSO/PEG-400/Milli-Q water formulation, mean of 3 animals, read-out: Cmax): 415 ng/mL
